Test results: US20220218852A1, “NOVEL RADIOLABELLED CXCR4-TARGETING COMPOUNDS FOR DIAGNOSIS AND THERAPY” (PROVINCIAL HEALTH SERVICES AUTHORITY, priority 2019, published 2022)
Positions of bridges follow the written chain, without caps; N, C: chain ends. Non-standard residues stand in square brackets, D forms with d. Residues, ends and D or L forms follow the SMILES beside them. Groups on a side chain read outwards from the residue. *: point of attachment. DOTA = O=C(O)CN1CCN(CC(=O)O)CCN(CC(=O)*)CCN(CC(=O)O)CC1; 2Nal = N[C@@H](Cc1ccc2ccccc2c1)C(=O)O; Lys(iPr) = CC(C)NCCCC[C@H](N)C(=O)O

System: Z138 xenograft
Test: Dosimetry, Human Extrapolated from Mouse Model, based on Z138 xenograft mice
Format: in vivo
Conditions: Lu-177, Z138 xenograft mice
Source text: The multi-time-point organ uptake obtained from biodistribution data of ^177Lu-labeled analogs was decayed to their appropriate time-point, fitted to a mono-exponential or bi-exponential model (fit chosen based on R2 and residuals) in Python (version 3.7). The area under the curve was used to compute residence times which were multiplied by model organ mass for human (NURBS model) and mouse (25 g MOBY mouse phantom) for use in OLINDA/EXM software (Hermes Medical Solution; version 2.0) that calculated dosimetry for an average mouse (Stabin et al., J Nucl Med. 2005, 46:1023-1027; Keenan et al., J Nucl Med. 2010, 51:471-476) and extrapolated to an average human male (Segars et al., J Nucl Med. 2001, 42:7; Stabin et al., J Nucl Med. 2012, 53:1807-13).

CC(C)NCCCC[C@@H]1NC(=O)[C@H](Cc2ccc(O)cc2)NC(=O)[C@H](Cc2ccccc2)NC(=O)CC[C@H](C(=O)N[C@@H](CCCCNC(C)C)C(=O)N[C@@H](CCCCNC(=O)[C@H](CCC(=O)O)NC(=O)[C@H](CCC(=O)O)NC(=O)[C@H](CCC(=O)O)NC(=O)CN2CCN(CC(=O)O)CCN(CC(=O)O)CCN(CC(=O)O)CC2)C(N)=O)NC(=O)CNC(=O)[C@H](Cc2ccc3ccccc3c2)NC(=O)[C@@H](CCCNC(=N)N)NC1=O [[^177Lu]Lu-BL02, metal not drawn] (FY[Lys(iPr)][dR][2Nal]G[dE][Lys(iPr)]K([Glu-Glu-Glu-DOTA])-NH2; lactam N-7)
Absorbed Dose, Adrenals (Adrenals): 0.00413 mGy/MBq
Absorbed Dose, Brain (Brain): 4.5e−05 mGy/MBq
Absorbed Dose, Esophagus (Esophagus): 0.000564 mGy/MBq
Absorbed Dose, Eyes (Eyes): 0.000296 mGy/MBq
Absorbed Dose, Gallbladder Wall (Gallbladder Wall): 0.000923 mGy/MBq
Absorbed Dose, Heart (Heart): 0.00148 mGy/MBq
Absorbed Dose, Kidneys (Kidneys): 0.0332 mGy/MBq
Absorbed Dose, Left colon (Left colon): 0.000755 mGy/MBq
Absorbed Dose, Liver (Liver): 0.0183 mGy/MBq
Absorbed Dose, Lungs (Lungs): 0.0126 mGy/MBq
Absorbed Dose, Pancreas (Pancreas): 0.00105 mGy/MBq
Absorbed Dose, Prostate (Prostate): 0.000336 mGy/MBq
Absorbed Dose, Rectum (Rectum): 0.000473 mGy/MBq
Absorbed Dose, Red Marrow (Red Marrow): 0.000377 mGy/MBq
Absorbed Dose, Remainder of the Body (Remainder of the Body): 0.00117 mGy/MBq
Absorbed Dose, Right colon (Right colon): 0.000642 mGy/MBq
Absorbed Dose, Salivary Glands (Salivary Glands): 0.00031 mGy/MBq
Absorbed Dose, Skeleton (Skeleton): 0.000457 mGy/MBq
Absorbed Dose, Small Intestine (Small Intestine): 0.000691 mGy/MBq
Absorbed Dose, Spleen (Spleen): 0.0193 mGy/MBq
Absorbed Dose, Stomach Wall (Stomach Wall): 0.000883 mGy/MBq
Absorbed Dose, Testes (Testes): 0.00168 mGy/MBq
Absorbed Dose, Thymus (Thymus): 0.000454 mGy/MBq
Absorbed Dose, Thyroid (Thyroid): 0.000396 mGy/MBq
Absorbed Dose, Urin Blad (Urin Blad): 0.00032 mGy/MBq
